Measurements reported in patent US20240382474A1, “ENPP1 MODULATORS AND USES THEREOF” (Vir Biotechnology, Inc., priority 2021, published 2024).

Target: T1, human ENPP1 enzymatic domain (Homo sapiens, UniProt P22413)
T1 construct: recombinant protein containing the human ENPP1 enzymatic domain; purchased Viva Biotech
T1 sequence (P22413 191-591 limits assumed): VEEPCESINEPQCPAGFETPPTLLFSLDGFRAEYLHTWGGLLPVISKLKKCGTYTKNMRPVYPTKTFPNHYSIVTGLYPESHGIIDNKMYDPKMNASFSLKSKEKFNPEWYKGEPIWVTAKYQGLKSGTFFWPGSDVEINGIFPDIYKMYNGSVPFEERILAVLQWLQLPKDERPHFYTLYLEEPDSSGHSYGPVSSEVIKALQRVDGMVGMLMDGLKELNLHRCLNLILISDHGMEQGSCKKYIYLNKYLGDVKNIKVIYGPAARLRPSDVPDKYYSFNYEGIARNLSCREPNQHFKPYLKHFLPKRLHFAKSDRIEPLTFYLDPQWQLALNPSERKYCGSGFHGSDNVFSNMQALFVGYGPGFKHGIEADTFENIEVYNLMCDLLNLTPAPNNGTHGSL
Test: ENPP1 Enzymatic Inhibition Assay (2′3′-cGAMP substrate, AMP-Glo luminescence)
Assay type: biochemical
Conditions: 1 nM ENPP1, 20 uM 2′3′-cGAMP, 30 minutes at 37° C.
Description: The inhibition of ENPP1's phosphodiesterase activity were tested in a purified enzymatic assay using 2′3′-cyclic GAMP as a substrate which allowed for the release of cleaved AMP to be monitored using a luminescent assay.
Putative inhibitors were diluted in assay buffer (50 mM Tris pH 8.0, 250 mM NaCl, 0.5 mM CaCl2), 1 uM ZnCl2, 1% DMSO) and pre-incubated for 15 minutes at 37° C. with recombinant protein containing the human ENPP1 enzymatic domain (Viva Biotech). The enzymatic reaction was initiated upon addition of the 2′3′-cGAMP substrate. The final reaction concentrations were 1 nM ENPP1 and 20 uM 2′3′-cGAMP substrate in a 25 uL volume. Inhibitor concentrations ranged from 10 uM to 0.056 nM. The reaction was incubated for 30 minutes at 37° C.
After reacting for 30 minutes, the amount of AMP generated from the cleavage of 2′3′-cGAMP was determined using the Promega AMP-Glo method according to the manufacturer's protocol. First, AMP-Glo reagent 1 was added and incubated with the reaction mix for 1 hour at room temperature. Second, AMP Detection solution was added and the mixture was incubated for an additional hour. The luminescence of the mixture was read on a Perkin Elmer Ensight plate reader.
The maximum and minimum levels of ENPP1 activity were established using no inhibitor and no enzyme controls, respectively. The activity observed using ENPP1 inhibitors was quantified as the percent of activity relative to these controls. IC50 values were calculated using CDD Vault by fitting a sigmoidal variable slope nonlinear regression model to the data.

Compound	IC50 [nM]
CN[S@](=N)(=O)c1ccc(Oc2ccnc3cc(OC)ccc23)cc1 [Compound 2, (S)-4-((7-methoxyquinolin-4-yl)oxy)-N-methylbenzenesulfonimidamide]	< 10
COc1ccc2c(Oc3ccc([S@](=N)(=O)NCCO)cc3)ccnc2c1 [Compound 3, (R)-N-(2-hydroxyethyl)-4-((7-methoxyquinolin-4-yl)oxy)benzenesulfonimidamide]	10 to 100
COc1ccc2c(Oc3ccc([S@@](=N)(=O)NCCO)cc3)ccnc2c1 [Compound 4, (S)-N-(2-hydroxyethyl)-4-((7-methoxyquinolin-4-yl)oxy)benzenesulfonimidamide]	< 10
COc1ccc2c(Oc3ccc([S@](=N)(=O)N[C@@H](C)CO)cc3)ccnc2c1 [Compound 5, (R)-N-((S)-1-hydroxypropan-2-yl)-4-((7-methoxyquinolin-4-yl)oxy)benzenesulfonimidamide]	10 to 100
COc1ccc2c(Oc3ccc([S@@](=N)(=O)N[C@@H](C)CO)cc3)ccnc2c1 [Compound 6, (S)-N-((S)-1-hydroxypropan-2-yl)-4-((7-methoxyquinolin-4-yl)oxy)benzenesulfonimidamide]	< 10
COc1ccc2c(Oc3ccc([S@](=N)(=O)NC[C@H](C)O)cc3)ccnc2c1 [Compound 7, (R)-N-((S)-2-hydroxypropyl)-4-((7-methoxyquinolin-4-yl)oxy)benzenesulfonimidamide]	10 to 100
COc1ccc2c(Oc3ccc([S@@](=N)(=O)NC[C@H](C)O)cc3)ccnc2c1 [Compound 8, (S)-N-((S)-2-hydroxypropyl)-4-((7-methoxyquinolin-4-yl)oxy)benzenesulfonimidamide]	< 10
COc1ccc2c(Oc3ccc([S@](=N)(=O)NCC(C)(C)O)cc3)ccnc2c1 [Compound 9, (R)-N-(2-hydroxy-2-methylpropyl)-4-((7-methoxyquinolin-4-yl)oxy)benzenesulfonimidamide]	10 to 100
COc1ccc2c(Oc3ccc([S@@](=N)(=O)NCC(C)(C)O)cc3)ccnc2c1 [Compound 10, (S)-N-(2-hydroxy-2-methylpropyl)-4-((7-methoxyquinolin-4-yl)oxy)benzenesulfonimidamide]	< 10
COc1ccc2c(Oc3ccc([S@](=N)(=O)N[C@H](C)CO)cc3)ccnc2c1 [Compound 11, (R)-N-((R)-1-hydroxypropan-2-yl)-4-((7-methoxyquinolin-4-yl)oxy)benzenesulfonimidamide]	10 to 100
COc1ccc2c(Oc3ccc([S@@](=N)(=O)N[C@H](C)CO)cc3)ccnc2c1 [Compound 12, (S)-N-((R)-1-hydroxypropan-2-yl)-4-((7-methoxyquinolin-4-yl)oxy)benzenesulfonimidamide]	< 10
COc1ccc2c(Oc3ccc([S@](=N)(=O)NCC4CC4)cc3)ccnc2c1 [Compound 13, (R)-N-(cyclopropylmethyl)-4-((7-methoxyquinolin-4-yl)oxy)benzenesulfonimidamide]	> 100
COc1ccc2c(Oc3ccc([S@@](=N)(=O)NCC4CC4)cc3)ccnc2c1 [Compound 14, (S)-N-(cyclopropylmethyl)-4-((7-methoxyquinolin-4-yl)oxy)benzenesulfonimidamide]	< 10
CN[S@@](=N)(=O)c1ccc(Nc2ncnc3cc(OC)ccc23)cc1 [Compound 15, (R)-4-((7-methoxyquinazolin-4-yl)amino)-N-methylbenzenesulfonimidamide]	10 to 100
CN[S@](=N)(=O)c1ccc(Nc2ncnc3cc(OC)ccc23)cc1 [Compound 16, (S)-4-((7-methoxyquinazolin-4-yl)amino)-N-methylbenzenesulfonimidamide]	< 10
CN[S@@](=N)(=O)c1ccc(Nc2ccnc3cc(OC)ccc23)cc1 [Compound 17, (R)-4-((7-methoxyquinolin-4-yl)amino)-N-methylbenzenesulfonimidamide]	< 10
CN[S@](=N)(=O)c1ccc(Nc2ccnc3cc(OC)ccc23)cc1 [Compound 18, (S)-4-((7-methoxyquinolin-4-yl)amino)-N-methylbenzenesulfonimidamide]	< 10
COc1ccc2c(Nc3ccc([S@](=N)(=O)NCC4CC4)cc3)ccnc2c1 [Compound 19, (R)-N-(cyclopropylmethyl)-4-((7-methoxyquinolin-4-yl)amino)benzenesulfonimidamide]	< 10
COc1ccc2c(Nc3ccc([S@@](=N)(=O)NCC4CC4)cc3)ccnc2c1 [Compound 20, (S)-N-(cyclopropylmethyl)-4-((7-methoxyquinolin-4-yl)amino)benzenesulfonimidamide]	< 10
COc1ccc2c(Nc3ccc([S@@](=N)(=O)NCC4CC4)cc3)c(C#N)cnc2c1 [Compound 21, (S)-4-((3-cyano-7-methoxyquinolin-4-yl)amino)-N-(cyclopropylmethyl)benzenesulfonimidamide]	10 to 100
N=[S@](=O)(NCC1CC1)c1ccc(Nc2ccnc3cc(OC(F)F)ccc23)cc1 [Compound 22, (S)-N-(cyclopropylmethyl)-4-((7-(difluoromethoxy)quinolin-4-yl)amino)benzenesulfonimidamide]	< 10
COc1ccc2c(Oc3ccc([S@](=N)(=O)NC[C@@H](C)O)cc3)ccnc2c1 [Compound 25, (R)-N-((R)-2-hydroxypropyl)-4-((7-methoxyquinolin-4-yl)oxy)benzenesulfonimidamide]	< 10
COc1ccc2c(Oc3ccc([S@](=N)(=O)N[C@H](C)c4ccnn4C)cc3)ccnc2c1 [Compound 27, (R)-4-((7-methoxyquinolin-4-yl)oxy)-N-((R)-1-(1-methyl-1H-pyrazol-5-yl)ethyl)benzenesulfonimidamide]	10 to 100
COc1ccc2c(Oc3ccc([S@@](=N)(=O)N[C@H](C)c4ccnn4C)cc3)ccnc2c1 [Compound 28, (S)-4-((7-methoxyquinolin-4-yl)oxy)-N-((R)-1-(1-methyl-1 H-pyrazol-5-yl)ethyl)benzenesulfonimidamide]	< 10
COc1ccc2c(Oc3ccc([S@](=N)(=O)NC(C)c4ccn(C)n4)cc3)ccnc2c1 (stereo partly drawn) [Compound 29, (R)-4-((7-methoxyquinolin-4-yl)oxy)-N-(1-(1-methyl-1H-pyrazol-3-yl)ethyl)benzenesulfonimidamide]	< 10
COc1ccc2c(Oc3ccc([S@@](=N)(=O)NC(C)c4ccn(C)n4)cc3)ccnc2c1 (stereo partly drawn) [Compound 30, (S)-4-((7-methoxyquinolin-4-yl)oxy)-N-(1-(1-methyl-1H-pyrazol-3-yl)ethyl)benzenesulfonimidamide]	< 10
COc1ccc2c(Oc3ccc([S@](=N)(=O)NC[C@@H](O)CO)cc3)ccnc2c1 [Compound 31, (R)-N-((R)-2,3-dihydroxypropyl)-4-((7-methoxyquinolin-4-yl)oxy)benzenesulfonimidamide]	10 to 100
COc1ccc2c(Oc3ccc([S@@](=N)(=O)NC[C@@H](O)CO)cc3)ccnc2c1 [Compound 32, (S)-N-((R)-2,3-dihydroxypropyl)-4-((7-methoxyquinolin-4-yl)oxy)benzenesulfonimidamide]	< 10
COc1ccc2c(Oc3ccc([S@](=N)(=O)NC[C@H](O)CO)cc3)ccnc2c1 [Compound 33, (R)-N-((S)-2,3-dihydroxypropyl)-4-((7-methoxyquinolin-4-yl)oxy)benzenesulfonimidamide]	10 to 100
